For one compound, IC50 and Kd results are on record in PMC6218115, “In Vitro Potency and Preclinical Pharmacokinetic Comparison of All-D-Enantiomeric Peptides Developed for the Treatment of Alzheimer’s Disease” (Journal of Alzheimer's Disease, 2018).

Series [1] concerns the target T1, Aβ1-42 (Homo sapiens, UniProt P05067).
T1 construct: Lyophilized Aβ1 - 42 was dissolved in the respective peptide solution; purchased Isoloid GmbH (recombinant) or Bachem AG (synthetic)
Put plainly: Aβ aggregation assay (Thioflavin T). It is filed as biochemical. The conditions noted are these: 10 μM Aβ1-42, 5 μM ThT, 20 mM sodium phosphate pH 7.4, 50 mM NaCl, 37°C, 70 h, triplicates, nonlinear regression; read-out: IC50, inhibition of Aβ1-42 aggregation into ThT-positive fibrils. The procedure: The potencies of ANK6, tANK6, cANK6r, and D3 to inhibit Aβ1 - 42 aggregation was examined using Thioflavin T (ThT). For this purpose, a buffer solution composed of 20 mM sodium phosphate buffer (pH 7.4) including 50 mM sodium chloride, and 5μM ThT was prepared. Afterwards, ANK6, tANK6, cANK6r, or D3 were diluted in this solution, respectively, to final peptide concentrations between 0.3125 and 80μM (ANK6 and tANK6:0.3125, 0.625, 1.25, 2.5, 5, 10, 20μM; cANK6r: 1.25, 2.5, 5, 10, 20, 40, 80μM; D3:1.17, 2.34, 4.7, 9.4, 18.8, 37.5, 75μM).
The buffer solution only served as negative control (blank). Lyophilized Aβ1 - 42 was dissolved in the respective peptide solution to a final concentration of 10μM. D-peptide solutions with the highest concentration of the respective D-peptide containing all components, except of Aβ1 - 42, served as negative controls. Aβ1 - 42 solved in buffer solution without D-peptide served as positive control. 100μL of each solution were transferred into the wells (triplicates) of 96 well microplates (PS, black, non-binding from Greiner Bio-One, Germany) and fluorescence signals (excitationλ 440 nm, emissionλ 490 nm) were measured in a Polarstar Optima plate reader (BMG, Germany) at 37°C every 20 min for 70 h. Afterwards, the respective blank curves were subtracted from each aggregation curve to exclude background fluorescence. […] The half maximal inhibitory concentration (IC50 value) was determined by plotting the percent inhibition against the respective D-peptides’ concentrations. Datasets were fitted by nonlinear regression (one site – specific binding with Hill slope, GraphPad Prism 5).

The test system of series [2] is α1-acid glycoprotein (AGP). The conditions noted are these: Jiang et al.; read-out: KD of D3 to AGP; cited from earlier work. The source says: This had been expected before as all three D-peptides have a positive net charge and AGP is known to more strongly bind positively charged molecules as compared to HSA, which is known to bind rather acidic or neutral molecules. This had been observed previously for D3 in a similar manner. […] The unbound fractions (fu) of the th ...

Non-standard residues stand in square brackets, D forms with d. Residues, ends and D or L forms follow the SMILES beside them.

T1 sequence (P05067 672-713 limits assumed): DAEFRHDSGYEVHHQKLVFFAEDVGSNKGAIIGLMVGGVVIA

Take `CC(C)C[C@@H](NC(=O)[C@@H](CCCNC(=N)N)NC(=O)[C@H](NC(=O)[C@@H](CCCNC(=N)N)NC(=O)[C@H]1CCCN1C(=O)[C@H](N)CCCNC(=N)N)[C@H](C)O)C(=O)N[C@H](Cc1c[nH]cn1)C(=O)N[C@@H](C(=O)N[C@H](Cc1c[nH]cn1)C(=O)N[C@H](CCCNC(=N)N)C(=O)N[C@H](CC(N)=O)C(=O)N[C@H](CCCNC(=N)N)C(N)=O)[C@H](C)O` [Peptide D3] (H-[dR][dP][dR][dT][dR][dL][dH][dT][dH][dR][dN][dR]-NH2): in series [1], the concentration for half-maximal inhibition (IC50) (usually the concentration that inhibits the measured activity by half) was 7.2 µM. Moreover, in series [2], the Kd – broadly, the free concentration of one partner at which half of the binding sites on the other are occupied at equilibrium, for simple one-to-one binding – was 1800 nM.
